Structures can show the parent of a compound that is named as a salt. Where two headings read alike, the source gives them in different places.
Target: human Nav1.8 (Homo sapiens, UniProt Q9Y5Y9)
Assay: SyncroPatch384PE assay (automated patch clamp)
Type: cell-based
Details: human Nav1.8/b3 CHO cells
[1] = inactivated state block (P2 measurement), read-out: P2 IC50
[2] = resting state block (P1 measurement), read-out: P1 IC50

Sequence of human Nav1.8 (Q9Y5Y9 whole entry): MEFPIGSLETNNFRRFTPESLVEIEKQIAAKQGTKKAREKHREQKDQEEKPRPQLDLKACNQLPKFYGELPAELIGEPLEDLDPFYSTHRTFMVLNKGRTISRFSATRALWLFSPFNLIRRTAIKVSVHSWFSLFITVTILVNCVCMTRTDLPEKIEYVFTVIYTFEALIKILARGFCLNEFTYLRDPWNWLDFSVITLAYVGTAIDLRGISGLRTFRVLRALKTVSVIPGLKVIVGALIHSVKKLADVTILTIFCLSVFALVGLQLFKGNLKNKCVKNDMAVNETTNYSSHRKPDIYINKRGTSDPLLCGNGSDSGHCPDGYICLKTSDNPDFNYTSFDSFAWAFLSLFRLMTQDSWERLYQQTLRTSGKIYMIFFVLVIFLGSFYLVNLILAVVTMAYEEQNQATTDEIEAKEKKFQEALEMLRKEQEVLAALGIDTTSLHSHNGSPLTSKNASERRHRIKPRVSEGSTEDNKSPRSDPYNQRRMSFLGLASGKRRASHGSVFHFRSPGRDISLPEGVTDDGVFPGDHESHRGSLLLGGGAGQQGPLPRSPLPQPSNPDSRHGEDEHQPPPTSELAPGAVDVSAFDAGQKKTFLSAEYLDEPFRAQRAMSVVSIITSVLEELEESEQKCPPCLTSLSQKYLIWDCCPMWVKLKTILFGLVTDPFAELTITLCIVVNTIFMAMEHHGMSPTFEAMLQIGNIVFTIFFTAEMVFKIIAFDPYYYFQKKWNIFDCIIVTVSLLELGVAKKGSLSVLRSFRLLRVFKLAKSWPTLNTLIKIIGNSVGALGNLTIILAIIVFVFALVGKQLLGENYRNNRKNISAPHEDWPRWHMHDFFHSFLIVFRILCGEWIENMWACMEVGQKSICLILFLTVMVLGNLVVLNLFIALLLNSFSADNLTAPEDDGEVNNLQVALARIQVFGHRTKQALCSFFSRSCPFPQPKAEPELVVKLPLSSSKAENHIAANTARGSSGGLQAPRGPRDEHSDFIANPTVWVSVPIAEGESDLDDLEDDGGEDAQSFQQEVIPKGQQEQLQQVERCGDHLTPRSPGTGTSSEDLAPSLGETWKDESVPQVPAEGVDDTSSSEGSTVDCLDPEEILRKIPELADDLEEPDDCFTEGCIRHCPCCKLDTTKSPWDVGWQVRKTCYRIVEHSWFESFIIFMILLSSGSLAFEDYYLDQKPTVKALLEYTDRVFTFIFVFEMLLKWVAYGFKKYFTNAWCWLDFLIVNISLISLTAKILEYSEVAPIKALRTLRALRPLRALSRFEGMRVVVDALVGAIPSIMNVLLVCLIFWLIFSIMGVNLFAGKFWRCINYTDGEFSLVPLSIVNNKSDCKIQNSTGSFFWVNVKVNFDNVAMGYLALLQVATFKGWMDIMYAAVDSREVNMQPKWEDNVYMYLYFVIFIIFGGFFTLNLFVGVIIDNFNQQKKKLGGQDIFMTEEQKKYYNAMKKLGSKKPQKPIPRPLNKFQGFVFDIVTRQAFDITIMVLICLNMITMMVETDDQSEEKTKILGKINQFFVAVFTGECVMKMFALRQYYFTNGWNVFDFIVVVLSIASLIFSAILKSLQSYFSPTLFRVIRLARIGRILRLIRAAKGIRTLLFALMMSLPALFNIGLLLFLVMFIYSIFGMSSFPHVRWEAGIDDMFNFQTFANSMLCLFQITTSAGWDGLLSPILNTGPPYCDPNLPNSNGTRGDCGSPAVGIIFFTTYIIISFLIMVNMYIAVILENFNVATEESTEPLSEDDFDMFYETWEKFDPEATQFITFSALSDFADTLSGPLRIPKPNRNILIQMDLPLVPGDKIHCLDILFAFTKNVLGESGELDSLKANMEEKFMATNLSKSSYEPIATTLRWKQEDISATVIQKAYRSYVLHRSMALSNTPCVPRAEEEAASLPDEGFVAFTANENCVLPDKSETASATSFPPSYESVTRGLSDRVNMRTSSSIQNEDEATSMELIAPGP

Row | Compound | IC50 [1] [nM] | IC50 [2] [nM]
1 | C[S@@](=N)(=O)c1cccc(NC(=O)c2c(N3CCCC(F)(F)CC3)ncc(Cl)c2F)c1 [Example 226, (R)-5-chloro-2-(4,4-difluoroazepan-1-yl)-4-fluoro-N-(3-(S-methylsulfonimidoyl)phenyl)nicotinamide] | ≤ 5 | ≤ 5
2 | Cc1nc(C(F)(F)F)nc(N2CCCC(F)(F)CC2)c1C(=O)Nc1cccc([S@@](C)(=N)=O)c1 [Example 143, (S)-4-(4,4-difluoroazepan-1-yl)-6-methyl-N-(3-(S-methylsulfonimidoyl)phenyl)-2-(trifluoromethyl)pyrimidine-5-carboxamide] | 50 to 100 | 50 to 100
3 | Cc1c(-c2cccc(F)c2)cnc(N2CCCC(F)(F)CC2)c1C(=O)Nc1cccc(S(C)(=N)=O)c1 (stereo not shown) [Example 82, 2-(4,4-difluoroazepan-1-yl)-5-(3-fluorophenyl)-4-methyl-N-(3-(S-methylsulfonimidoyl)phenyl)nicotinamide] | ≤ 5 | ≤ 5
4 | Cc1ccsc1-c1nnc(N2CCCCCC2)c(C(=O)Nc2cccc(S(C)(=N)=O)c2)c1C (stereo not shown) [Example 79, 3-(Azepan-1-yl)-5-methyl-N-(3-(S-methylsulfonimidoyl)phenyl)-6-(3-methylthiophen-2-yl)pyridazine-4-carboxamide] | > 200 | > 200
5 | Cc1c(-c2cnn(C)c2)cnc(N2CCCC(F)(F)CC2)c1C(=O)Nc1cccc([S@@](C)(=O)=NC(=O)C2(N)CC2)c1 [Example 53, (R)-N-(3-(N-(1-aminocyclopropane-1-carbonyl)-S-methylsulfonimidoyl)phenyl)-2-(4,4-difluoroazepan-1-yl)-4-methyl-5-(1-methyl-1H-pyrazol-4-yl)nicotinamide formate] | 5 to 50 | 5 to 50
6 | Cc1c(-c2cnn(C)c2)nnc(N2CCCC(F)(F)CC2)c1C(=O)Nc1cccc([S@](C)(=N)=O)c1 [Example 71, (R)-3-(4,4-difluoroazepan-1-yl)-5-methyl-6-(1-methyl-1H-pyrazol-4-yl)-N-(3-(S-methylsulfonimidoyl)phenyl)pyridazine-4-carboxamide] | > 200 | > 200
7 | Cc1c(N2CC3(COC3)C2)cnc(N2CCCC(F)(F)CC2)c1C(=O)Nc1cccc([S@@](C)(=N)=O)c1 [Example 90, (S)-2-(4,4-difluoroazepan-1-yl)-4-methyl-N-(3-(S-methylsulfonimidoyl)phenyl)-5-(2-oxa-6-azaspiro[3.3]heptan-6-yl)nicotinamide] | 100 to 200 | 100 to 200
8 | CNCC(=O)N=[S@](C)(=O)c1cccc(NC(=O)c2cc(Cl)c(C(F)(F)F)cc2N2CCCC(F)(F)CC2)c1 [Example 228, (R)-5-chloro-2-(4,4-difluoroazepan-1-yl)-N-(3-(S-methyl-N-(methylglycyl)sulfonimidoyl)phenyl)-4-(trifluoromethyl)benzamide] | ≤ 5 | ≤ 5
9 | Cc1c(C(F)(F)F)cnc(N2CCCC(F)(F)CC2)c1C(=O)Nc1cccc([S@@](C)(=O)=NC(=O)CN2CC(F)(F)C2)c1 [Example 202, (R)-2-(4,4-difluoroazepan-1-yl)-N-(3-(N-(2-(3,3-difluoroazetidin-1-yl)acetyl)-S-methylsulfonimidoyl)phenyl)-4-methyl-5-(trifluoromethyl)nicotinamide] | ≤ 5 | ≤ 5
10 | Cc1c(-c2cnn(C)c2)cnc(N2CCCC(F)(F)CC2)c1C(=O)Nc1cccc(S(C)(=N)=O)c1 (stereo not shown) [Example 83, 2-(4,4-difluoroazepan-1-yl)-4-methyl-5-(1-methyl-1H-pyrazol-4-yl)-N-(3-(S-methylsulfonimidoyl)phenyl)nicotinamide] | 50 to 100 | 50 to 100
11 | Cc1c(-c2ccccc2)nnc(N2CCCC(F)(F)CC2)c1C(=O)Nc1cccc(S(C)(=N)=O)c1 (stereo not shown) [Example 20, 3-(4,4-difluoroazepan-1-yl)-5-methyl-N-(3-(S-methylsulfonimidoyl)phenyl)-6-phenylpyridazine-4-carboxamide] | 50 to 100 | 50 to 100
12 | Cc1c(-c2ccc(C#N)cc2)cnc(N2CCCC(F)(F)CC2)c1C(=O)Nc1cccc(S(C)(=N)=O)c1 (stereo not shown) [Example 81] | ≤ 5 | ≤ 5
13 | CS(=N)(=O)c1cc(NC(=O)c2cc(C(F)(F)F)nnc2N2CCCCCC2)ccn1 (stereo not shown) [Example 2, 3-(azepan-1-yl)-N-{2-[imino(methyl)oxo-λ^6-sulfanyl]pyridin-4-yl}-6-(trifluoromethyl)pyridazine-4-carboxamide] | > 200 | > 200
14 | Cc1c(C#N)cnc(N2CCCC(F)(F)CC2)c1C(=O)Nc1ccnc([S@](C)(=N)=O)c1 [Example 201, (R)-5-cyano-2-(4,4-difluoroazepan-1-yl)-4-methyl-N-(2-(S-methylsulfonimidoyl)pyridin-4-yl)nicotinamide] | 5 to 50 | 5 to 50
15 | Cc1c(-c2ccc(C(F)F)cc2)nnc(N2CCCC(F)(F)CC2)c1C(=O)Nc1cccc([S@](C)(=N)=O)c1 [Example 167, (R)-3-(4,4-difluoroazepan-1-yl)-6-(4-(difluoromethyl)phenyl)-5-methyl-N-(3-(S-methylsulfonimidoyl)phenyl)pyridazine-4-carboxamide] | 5 to 50 | 5 to 50
16 | Cc1c(C(F)(F)F)nnc(N2CCCCCC2)c1C(=O)N=S(C)(=O)c1cccc(N)c1 (stereo not shown) [Example 8, N-((3-aminophenyl)(methyl)(oxo)-λ^6-sulfaneylidene)-3-(azepan-1-yl)-5-methyl-6-(trifluoromethyl)pyridazine-4-carboxamide] | > 200 | > 200
17 | Cc1ccc(-c2cnc(N3CCCC(F)(F)CC3)c(C(=O)Nc3cccc(S(C)(=N)=O)c3)c2C)cc1 (stereo not shown) [Example 96, 2-(4,4-difluoroazepan-1-yl)-4-methyl-N-(3-(S-methylsulfonimidoyl)phenyl)-5-(p-tolyl)nicotinamide] | ≤ 5 | ≤ 5
18 | Cc1c(-c2cnn(C)c2)cnc(N2CCCC(F)(F)CC2)c1C(=O)Nc1cccc([S@@](C)(=O)=NC(=O)[C@@H](C)O)c1 [Example 230, 2-(4,4-difluoroazepan-1-yl)-N-(3-((R)-N-((R)-2-hydroxypropanoyl)-S-methylsulfonimidoyl)phenyl)-4-methyl-5-(1-methyl-1H-pyrazol-4-yl)nicotinamide] | 5 to 50 | 5 to 50
19 | CS(=O)(=O)c1cccc(NC(=O)c2nnc(C(F)(F)F)cc2N2CCCC(F)(F)CC2)c1 [Example 39, 4-(4,4-Difluoroazepan-1-yl)-N-(3-(methylsulfonyl)phenyl)-6-(trifluoromethyl)pyridazine-3-carboxamide] | > 200 | > 200
20 | COc1ccc(-c2cnc(N3CCCC(F)(F)CC3)c(C(=O)Nc3cccc(S(C)(=N)=O)c3)c2C)cc1 (stereo not shown) [Example 93, 2-(4,4-difluoroazepan-1-yl)-5-(4-methoxyphenyl)-4-methyl-N-(3-(S-methylsulfonimidoyl)phenyl)nicotinamide] | ≤ 5 | ≤ 5
21 | Cc1c(-c2ccccc2)cnc(N2CCCC(F)(F)CC2)c1C(=O)Nc1cccc([S@@](C)(=N)=O)c1 [Example 103, (S)-2-(4,4-difluoroazepan-1-yl)-4-methyl-N-(3-(S-methylsulfonimidoyl)phenyl)-5-phenylnicotinamide] | ≤ 5 | ≤ 5
22 | Cc1c(C(F)(F)F)nnc(N2CCCC(F)(F)CC2)c1C(=O)Nc1cccc([S@@](C)(=O)=NC(=O)C(C)(C)N)c1 [Example 235, (R)-N-(3-(N-(2-amino-2-methylpropanoyl)-S-methylsulfonimidoyl)phenyl)-3-(4,4-difluoroazepan-1-yl)-5-methyl-6-(trifluoromethyl)pyridazine-4-carboxamide] | ≤ 5 | ≤ 5
23 | Cc1nc(N2CCCC(F)(F)CC2)c(C(=O)Nc2cccc(S(C)(=N)=O)c2)cc1C(F)(F)F (stereo not shown) [Example 3, 2-(4,4-difluoroazepan-1-yl)-6-methyl-N-(3-(S-methylsulfonimidoyl)phenyl)-5-(trifluoromethyl)nicotinamide] | ≤ 5 | ≤ 5
24 | Cc1c(C(F)(F)F)nnc(N2CCCCCC2)c1C(=O)Nc1cccc([S@](C)(=N)=O)c1 [Example 10, (R)-3-(azepan-1-yl)-5-methyl-N-(3-(S-methylsulfonimidoyl)phenyl)-6-(trifluoromethyl)pyridazine-4-carboxamide] | 50 to 100 | 50 to 100
25 | Cc1c(C(F)(F)F)nnc(N2CCCC(F)(F)CC2)c1C(=O)Nc1cccc([S@@](C)(=O)=NC(=O)C2(N)CCC2)c1 [Example 234, (R)-N-(3-(N-(1-aminocyclobutane-1-carbonyl)-S-methylsulfonimidoyl)phenyl)-3-(4,4-difluoroazepan-1-yl)-5-methyl-6-(trifluoromethyl)pyridazine-4-carboxamide] | ≤ 5 | ≤ 5
26 | Cc1c(C#N)c(C(F)(F)F)nc(N2CCCC(F)(F)CC2)c1C(=O)Nc1cccc([S@@](C)(=O)=NCCN)c1 [Example 196, (R)-N-(3-(N-(2-aminoethyl)-S-methylsulfonimidoyl)phenyl)-5-cyano-2-(4,4-difluoroazepan-1-yl)-4-methyl-6-(trifluoromethyl)nicotinamide] | ≤ 5 | ≤ 5
27 | Cc1nc(-c2cnn(C)c2)nc(N2CCCC(F)(F)CC2)c1C(=O)Nc1cccc([S@](C)(=N)=O)c1 [Example 150, (R)-4-(4,4-difluoroazepan-1-yl)-6-methyl-2-(1-methyl-1H-pyrazol-4-yl)-N-(3-(S-methylsulfonimidoyl)phenyl)pyrimidine-5-carboxamide] | 100 to 200 | 100 to 200
28 | Cc1cc(-c2cnn(C)c2)nc(N2CCCC(F)(F)CC2)c1C(=O)Nc1cccc([S@](C)(=N)=O)c1 [Example 151, (R)-2-(4,4-difluoroazepan-1-yl)-4-methyl-6-(1-methyl-1H-pyrazol-4-yl)-N-(3-(S-methylsulfonimidoyl)phenyl)nicotinamide] | 100 to 200 | 100 to 200
29 | Cc1c(C(F)(F)F)nnc(N2CCCC(F)(F)CC2)c1C(=O)Nc1cccc([S@@](C)(=O)=NC(=O)CN2CC(F)(F)C2)c1 [Example 198, (R)-3-(4,4-difluoroazepan-1-yl)-N-(3-(N-(2-(3,3-difluoroazetidin-1-yl)acetyl)-S-methylsulfonimidoyl)phenyl)-5-methyl-6-(trifluoromethyl)pyridazine-4-carboxamide] | ≤ 5 | ≤ 5
